Values joined by “and” are separate entries in the source; they are usually repeats but may differ in a detail not shown here. Equal entries are not always repeated. Inconclusive results and toxic doses are left out.
Tested on: BDF1 mice, P388 leukemia ip, median survival T/C
Assay: NCI In Vivo Anticancer Drug Screen. Data for tumor model P388 Leukemia (intraperitoneal) in B6D2F1 (BDF1) mice
Conditions: endpoint: median survival time, higher = longer survival
In short: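 Survival ratio, drug arm over vehicle arm, in mice with a transplanted tumour.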

[1] = dose: 50.0 mg/kg/injection, schedule: Q04DX003 (ip), vehicle: saline with Tween-80
[2] = dose: 12.5 mg/kg/injection, schedule: Q01DX009 (ip), vehicle: Klucel (hydroxypropylcellulose) (HPC)
[3] = dose: 100.0 mg/kg/injection, schedule: Q04DX003 (ip), vehicle: saline with Tween-80
[4] = dose: 200.0 mg/kg/injection, schedule: Q04DX003 (ip), vehicle: saline with Tween-80
[5] = dose: 400.0 mg/kg/injection, schedule: Q04DX003 (ip), vehicle: saline with Tween-80

How did the T/C (dose: 100.0 mg/kg/injection, schedule: Q01DX001 (ip), vehicle: saline) turn out when `O=S(=O)(O)c1cc(S(=O)(=O)O)c2cc(N=Nc3ccc(N(CC4CO4)CC4CO4)cc3)ccc2c1` (stereo not drawn) was run?
Its T/C is 108 % of control.

What about the T/C (dose: 200.0 mg/kg/injection, schedule: Q01DX001 (ip), vehicle: saline) of the same compound?
The T/C was 102 % of control.

What about the T/C (dose: 400.0 mg/kg/injection, schedule: Q01DX001 (ip), vehicle: saline) of the same compound?
The T/C was 113 % of control.

`CCOC(=O)C(=Cc1ccc(O)c(OC)c1)C(=O)OCC` was tested. Which T/C (dose: 100.0 mg/kg/injection, schedule: Q01DX001 (ip), vehicle: saline with Tween-80) did it give?
The T/C was 90 % of control.

And the T/C (dose: 200.0 mg/kg/injection, schedule: Q01DX001 (ip), vehicle: saline with Tween-80)?
The T/C was 95 % of control.

What about the T/C (dose: 400.0 mg/kg/injection, schedule: Q01DX001 (ip), vehicle: saline with Tween-80) of the same compound?
The T/C was 104 % of control.

How did the T/C (dose: 50.0 mg/kg/injection, schedule: Q01DX009 (ip), vehicle: saline with Tween-80) turn out when `O=C1OC(N2Cc3ccccc3C2=O)c2ccccc21` (stereo not drawn) was run?
Its T/C is 100 % of control.

And the T/C (dose: 100.0 mg/kg/injection, schedule: Q01DX009 (ip), vehicle: saline with Tween-80)?
The T/C was 100 % of control.

What about the T/C (dose: 200.0 mg/kg/injection, schedule: Q01DX009 (ip), vehicle: saline with Tween-80) of the same compound?
The T/C was 94 % of control.

`C/C(=N\[N+](C)(C)C)c1cccc(C)n1` was tested. Which T/C (dose: 25.0 mg/kg/injection, schedule: Q01DX009 (ip), vehicle: saline) did it give?
Its T/C is 100 % of control.

What about the T/C (dose: 25.0 mg/kg/injection, schedule: Q04DX003 (ip), vehicle: saline) of the same compound?
The T/C was 108 % of control.

What about the T/C (dose: 33.0 mg/kg/injection, schedule: Q04DX003 (ip), vehicle: saline with Tween-80) of the same compound?
The T/C was 100 % of control.

And the T/C (dose: 33.0 mg/kg/injection, schedule: Q04DX003 (ip), vehicle: saline)?
Its T/C is 104 % of control.

And the T/C (dose: 50.0 mg/kg/injection, schedule: Q01DX009 (ip), vehicle: saline)?
The T/C was 95 % of control.

And the T/C [1]?
The T/C was 100 % of control.

And the T/C (dose: 50.0 mg/kg/injection, schedule: Q04DX003 (ip), vehicle: saline)?
The T/C was 95 % of control.

And the T/C (dose: 75.0 mg/kg/injection, schedule: Q04DX003 (ip), vehicle: saline with Tween-80)?
Its T/C is 100 % of control.

And the T/C (dose: 75.0 mg/kg/injection, schedule: Q04DX003 (ip), vehicle: saline)?
Its T/C is 100 % of control.

What about the T/C (dose: 100.0 mg/kg/injection, schedule: Q04DX003 (ip), vehicle: saline) of the same compound?
Its T/C is 108 % of control.

Which T/C (dose: 6.25 mg/kg/injection, schedule: Q01DX009 (ip), vehicle: Klucel (hydroxypropylcellulose) (HPC)) does the source give for `N#CSc1ccc(Nc2ccc(SC#N)cc2)cc1` here?
Its T/C is 100 % of control.

And the T/C [2]?
Its T/C is 100 % of control.

What about the T/C (dose: 25.0 mg/kg/injection, schedule: Q01DX009 (ip), vehicle: Klucel (hydroxypropylcellulose) (HPC)) of the same compound?
Its T/C is 118 % of control.

And the T/C (dose: 35.0 mg/kg/injection, schedule: Q01DX009 (ip), vehicle: Klucel (hydroxypropylcellulose) (HPC))?
Its T/C is 108 % of control.

What about the T/C (dose: 50.0 mg/kg/injection, schedule: Q01DX009 (ip), vehicle: Klucel (hydroxypropylcellulose) (HPC)) of the same compound?
The T/C was 109 % of control.

What about the T/C (dose: 53.0 mg/kg/injection, schedule: Q01DX009 (ip), vehicle: Klucel (hydroxypropylcellulose) (HPC)) of the same compound?
Its T/C is 105 % of control.

What about the T/C (dose: 80.0 mg/kg/injection, schedule: Q01DX009 (ip), vehicle: Klucel (hydroxypropylcellulose) (HPC)) of the same compound?
The T/C was 109 % of control and 110 % of control.

And the T/C (dose: 120.0 mg/kg/injection, schedule: Q01DX009 (ip), vehicle: Klucel (hydroxypropylcellulose) (HPC))?
Its T/C is 120 % of control and 122 % of control.

Which T/C (dose: 12.5 mg/kg/injection, schedule: Q01DX009 (ip), vehicle: saline with Tween-80) does the source give for `C=CCCN1CCCC1` here?
Its T/C is 88 % of control.

And the T/C (dose: 12.5 mg/kg/injection, schedule: Q04DX003 (ip), vehicle: saline with Tween-80)?
The T/C was 100 % of control.

And the T/C (dose: 25.0 mg/kg/injection, schedule: Q01DX009 (ip), vehicle: saline with Tween-80)?
The T/C was 100 % of control.

What about the T/C (dose: 25.0 mg/kg/injection, schedule: Q04DX003 (ip), vehicle: saline with Tween-80) of the same compound?
Its T/C is 100 % of control.

And the T/C [1]?
The T/C was 95 % of control.

Which T/C [3] does the source give for `CCOC(=O)C(=CN1CCCCC1)C(=O)OCC` here?
The T/C was 95 % of control.

And the T/C [4]?
The T/C was 100 % of control.

What about the T/C [5] of the same compound?
The T/C was 100 % of control.

With `COc1cccc(CCNC(=O)CC(=O)O)c1OC` as the compound, how does the T/C [3] read?
The T/C was 100 % of control.

What about the T/C [4] of the same compound?
The T/C was 105 % of control.

And the T/C [5]?
The T/C was 100 % of control.

`Cc1ccc(COC(=O)c2ccccc2)cc1` was tested. Which T/C (dose: 100.0 mg/kg/injection, schedule: Q01DX001 (ip), vehicle: Klucel (hydroxypropylcellulose) (HPC)) did it give?
The T/C was 104 % of control.

And the T/C (dose: 200.0 mg/kg/injection, schedule: Q01DX001 (ip), vehicle: Klucel (hydroxypropylcellulose) (HPC))?
The T/C was 95 % of control.

What about the T/C (dose: 400.0 mg/kg/injection, schedule: Q01DX001 (ip), vehicle: Klucel (hydroxypropylcellulose) (HPC)) of the same compound?
Its T/C is 104 % of control.

How did the T/C (dose: 5.0 mg/kg/injection, schedule: Q01DX010 (ip), vehicle: carboxymethylcellulose (CMC)) turn out when `COc1ccc2c3c1OC1CC(O)C=CC31CCN(C)C2` (stereo not drawn) was run?
Its T/C is 100 % of control.

What does the source list for `Cc1cc(N(CCOS(C)(=O)=O)CCOS(C)(=O)=O)ccc1C=Nc1ccc(-c2csc(Cc3ccccc3)n2)cc1`?
T/C (dose: 8.25 mg/kg/injection, schedule: Q01DX009 (ip), vehicle: Klucel (hydroxypropylcellulose) (HPC)): 100 % of control and 211 % of control; T/C (dose: 12.4 mg/kg/injection, schedule: Q01DX009 (ip), vehicle: Klucel (hydroxypropylcellulose) (HPC)): 225 % of control; T/C [2]: 250 % of control; T/C (dose: 18.7 mg/kg/injection, schedule: Q01DX009 (ip), vehicle: Klucel (hydroxypropylcellulose) (HPC)): 155 % of control; T/C (dose: 18.75 mg/kg/injection, schedule: Q01DX009 (ip), vehicle: Klucel (hydroxypropylcellulose) (HPC)): 227 % of control and 178 % of control; T/C (dose: 28.13 mg/kg/injection, schedule: Q01DX009 (ip), vehicle: Klucel (hydroxypropylcellulose) (HPC)): 99 % of control

Reference: PubChem BioAssay AID328 (DTP/NCI, 2004)
